Assay: xn = mol fraction of the nth substance listed

C=Cc1ccccc1 + CCCCCCCCC
viscosity [mPa·s], 101.33 kPa
Conditions	x1 = 0.0999	x1 = 0.2002	x1 = 0.2986	x1 = 0.3964	x1 = 0.4953	x1 = 0.5967	x1 = 0.6984	x1 = 0.7933	x1 = 0.8971
298.15 K	0.638	0.626	0.618	0.613	0.614	0.616	0.628	0.642	0.669
303.15 K	0.606	0.588	0.582	0.577	0.579	0.581	0.593	0.606	0.628
308.15 K	0.564	0.551	0.547	0.544	0.544	0.547	0.558	0.57	0.591

C=Cc1ccccc1 + CCCCCCCCCC
viscosity [mPa·s], 101.33 kPa
Conditions	x1 = 0.1007	x1 = 0.2052	x1 = 0.2991	x1 = 0.4114	x1 = 0.4959	x1 = 0.6135	x1 = 0.6992	x1 = 0.8062	x1 = 0.8984
298.15 K	0.803	0.773	0.75	0.724	0.706	0.688	0.68	0.677	0.693
303.15 K	0.749	0.722	0.702	0.678	0.663	0.646	0.638	0.633	0.644
308.15 K	0.7	0.678	0.658	0.638	0.624	0.607	0.602	0.6	0.611

CC12CC3CC(C1)CC(C)(C3)C2 + CCCCCCCCCC
viscosity [mPa·s], 100 kPa
Conditions	x1 = 0.1028	x1 = 0.1981	x1 = 0.3019	x1 = 0.3998	x1 = 0.4996	x1 = 0.6018	x1 = 0.6968	x1 = 0.7904	x1 = 0.895
293.15 K	1.016	1.12	1.253	1.402	1.581	1.828	2.125	2.491	3.031
298.15 K	0.942	1.035	1.154	1.287	1.445	1.665	1.926	2.247	2.719
303.15 K	0.877	0.961	1.069	1.187	1.328	1.526	1.757	2.04	2.456
313.15 K	0.767	0.837	0.926	1.023	1.137	1.295	1.48	1.704	2.032
323.15 K	0.672	0.729	0.797	0.879	0.972	1.098	1.237	1.421	1.676

Reference: the CheMixHub viscosity set
